# Experimental data published in ChEMBL document CHEMBL1201862, “PubChem BioAssay data set” (2004).
# Active and inactive are the calls of the source.
# How the values were obtained:
# [1] = target: Aryl hydrocarbon receptor (Homo sapiens, UniProt P35869); assay: Luminescence-based cell-based high throughput dose response assay for activators of the Aryl Hydrocarbon Receptor (AHR). [Related pubchem assays: 2796 (Primary screen (AHR activators in singlicate)), 2845 (Confirmation screen (AHR activators in triplicate)), 434939 (Counterscreen (PXR activators in triplicate)), 2804 (Summary (AHR activators))]; format: ADME
# [2] = Luminescence Cell-Based Dose Confirmation HTS to Identify Inhibitors of Polyadenylation.; format: functional
# [3] = Luminescent dose response cell-based high throughput screening assay for inhibitors of the Janus kinase 2 mutant JAK2V617F. [Related pubchem assays: 1446 (Primary screen.), 1521 (Confirmation assay.), 1486 (Counter screen.)]; format: functional
# [4] = target: Luciferin 4-monooxygenase (Photinus pyralis, UniProt P08659); assay: firefly luciferase enzyme inhibitors, dose response, biochemical, luminescence (AID 1891)
# [5] = Luminescence Cell-Based Dose Confirmation HTS to Identify Inhibitors of Platelet Dense Granule Release. [Related pubchem assays: 1663 (Primary HTS), 1678 (Summary of Project)]; format: functional
# [6] = Fluorescence Cell-Based Dose Response to Identify Inhibitors of Thrombin Receptor-Activating Peptide SFLLRN-Mediated P-Selectin Induction on Platelets. [Related pubchem assays: 1663 (Primary HTS), 1889 (retest at dose ), 1891 (counterscreen), 1678 (Project Summary)]; format: functional
# 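For IC50 in this document: cells exposed to compound for 72 h before the viability read.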
# Sequence of Luciferin 4-monooxygenase (P08659 whole entry): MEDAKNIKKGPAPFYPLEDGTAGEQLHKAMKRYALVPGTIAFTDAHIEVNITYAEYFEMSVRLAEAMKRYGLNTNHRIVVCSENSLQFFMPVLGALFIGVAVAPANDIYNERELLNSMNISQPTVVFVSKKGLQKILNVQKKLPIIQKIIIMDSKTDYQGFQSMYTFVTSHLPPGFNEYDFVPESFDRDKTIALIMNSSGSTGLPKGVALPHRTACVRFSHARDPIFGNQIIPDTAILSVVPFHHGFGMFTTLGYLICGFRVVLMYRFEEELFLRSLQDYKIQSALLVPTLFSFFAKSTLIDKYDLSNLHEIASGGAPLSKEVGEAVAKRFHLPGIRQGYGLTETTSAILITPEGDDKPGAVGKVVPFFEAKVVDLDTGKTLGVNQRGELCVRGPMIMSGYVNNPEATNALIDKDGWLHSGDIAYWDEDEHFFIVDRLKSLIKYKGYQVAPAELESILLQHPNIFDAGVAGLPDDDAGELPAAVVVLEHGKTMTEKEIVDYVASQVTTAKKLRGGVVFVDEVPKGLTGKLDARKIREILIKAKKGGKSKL
# Sequence of Aryl hydrocarbon receptor (P35869 whole entry): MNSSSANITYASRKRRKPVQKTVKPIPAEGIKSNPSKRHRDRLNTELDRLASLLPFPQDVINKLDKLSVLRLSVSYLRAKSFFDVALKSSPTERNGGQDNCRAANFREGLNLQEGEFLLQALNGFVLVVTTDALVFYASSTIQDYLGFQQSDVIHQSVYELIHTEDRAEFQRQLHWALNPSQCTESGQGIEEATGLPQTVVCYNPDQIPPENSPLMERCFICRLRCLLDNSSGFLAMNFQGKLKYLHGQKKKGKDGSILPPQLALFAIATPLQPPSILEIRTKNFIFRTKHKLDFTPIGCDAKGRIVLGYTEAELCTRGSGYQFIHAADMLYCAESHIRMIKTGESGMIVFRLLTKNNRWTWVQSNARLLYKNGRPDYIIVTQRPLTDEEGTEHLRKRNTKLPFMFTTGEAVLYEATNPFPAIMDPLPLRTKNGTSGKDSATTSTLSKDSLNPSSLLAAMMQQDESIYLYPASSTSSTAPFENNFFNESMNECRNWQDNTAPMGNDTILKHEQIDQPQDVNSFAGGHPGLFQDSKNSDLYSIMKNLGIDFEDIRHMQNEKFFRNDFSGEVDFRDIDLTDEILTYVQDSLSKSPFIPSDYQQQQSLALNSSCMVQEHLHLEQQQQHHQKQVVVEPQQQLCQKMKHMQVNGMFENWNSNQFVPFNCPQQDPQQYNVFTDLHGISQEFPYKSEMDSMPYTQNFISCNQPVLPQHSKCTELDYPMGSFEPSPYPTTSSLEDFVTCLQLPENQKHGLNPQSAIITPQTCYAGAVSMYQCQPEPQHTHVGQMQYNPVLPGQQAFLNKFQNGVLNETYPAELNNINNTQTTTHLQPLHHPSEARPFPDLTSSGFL
compound,measurement,setting,value
NNc1nc(O)c2c3c(sc2n1)-c1ccccc1CC3,EC50,[1],0.373 µM (active)
O=C(NCCC1=CCCCC1)c1c(O)nc2ccccn2c1=O,EC50,[2],> 120 µM (not active)
CC(C)(C)OC(=O)N[C@@H](Cc1ccccc1)c1nnc(S(=O)(=O)Cc2cccc(F)c2)o1,IC50,[3],0.788 µM (active)
COc1cc2c(cc1OC)-c1cc(N3CCc4ccccc43)nc(=O)n1CC2,EC50,[4],> 112 µM (not active)
same,EC50,[5],6.83 µM (active)
same,EC50,[6],< 0.3 µM (active)
